What all share (format): biochemical
Test [1] deals with T1, Sfp (Bacillus subtilis, UniProt P39135). As to the kind of experiment: FRET phosphopantetheinyl transferase assay with purified enzyme.
The target in test [2] is T2, AcpS (Escherichia coli, UniProt P24224). The description is as above.
Test [3] has as its target T1, Sfp. Briefly: HPLC enzyme kinetics.
Test [4] addresses T2, AcpS. As to the kind of experiment: HPLC enzyme kinetics.

Broadly, the IC50 is the concentration that inhibits the measured activity by half. The Km is the substrate concentration at which the rate is half of its maximum.

T1 sequence (P39135 whole entry): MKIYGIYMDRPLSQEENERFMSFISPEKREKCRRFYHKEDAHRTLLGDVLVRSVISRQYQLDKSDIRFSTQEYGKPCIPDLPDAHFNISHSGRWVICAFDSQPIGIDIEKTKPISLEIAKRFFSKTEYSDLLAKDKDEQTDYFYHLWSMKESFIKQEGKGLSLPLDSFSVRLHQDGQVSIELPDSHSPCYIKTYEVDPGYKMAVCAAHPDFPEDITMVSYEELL
T2 sequence (P24224 2-126): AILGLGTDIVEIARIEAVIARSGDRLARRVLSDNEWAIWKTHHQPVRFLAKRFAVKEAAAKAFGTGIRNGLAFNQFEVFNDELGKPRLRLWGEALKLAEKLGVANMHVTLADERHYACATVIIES

`Nc1ncnc2c1ncn2[C@@H]1O[C@H](COP(=O)(O)O)[C@@H](OP(=O)(O)O)[C@H]1O` [compound 3, 3’-phosphoadenosine-5’-phosphate]: the figures for the 50% inhibitory concentration (IC50) in test [1] and in test [2] were 12.3 ± 1.1 µM and 92 ± 6 µM, respectively.

For the compound TAMRA-mCoA [compound 12], the Michaelis constant (Km) in test [3] amounted to 6 µM; in test [4] it was 22 µM.

The record behind these values is PMC2761036 (Analytical biochemistry, 2009).
